Data reported in US20250019382A1, “NOVEL INHIBITORS OF CYCLIN-DEPENDENT KINASES” (Origenis Gmbh, priority 2021, published 2025).

Tests used:
CDK9/CyclinT1 = target: T1, CDK9/CyclinT1 (Homo sapiens, UniProt P50750); experiment: CDK9/T1 ADPGlo kinase assay; format: biochemical; details: CDK9/CyclinT1 6 nM, ATP 10 microM, PDKtide 40 microM, 120 min RT
T1 construct: purchased ProQinase/Reaction Biology, USA #0371-0345-1
Procedure, shortened: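 Human CDK9/CyclinT1 (6 nM final) was preincubated 10 min with compound (12-point 1:3 series from 5 μM), then reacted 120 min at RT with PDKtide (40 μM final) and ATP (10 μM final). ADP was read by ADP-Glo luminescence; IC50 from variable-slope sigmoidal fit.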

CDK2/cyclin A1 [1] = target: T2, CDK2/cyclin A1 (Homo sapiens, UniProt P24941); experiment: CDK2/cyclin A1 LanthaScreen (SelectScreen); format: binding; details: first list; duplicate, averaged
T2 construct: purchased Invitrogen Ltd., Paisley, UK (SelectScreen service)
Experimental: (§1) The CDK2 inhibitory activity of the compounds of the invention was measured in combination with different […] and assay systems. The SelectScreen™ assessment of the kinase inhibitory activity of CDK2 data point was performed in duplicate and averaged data is reported here. The SelectScreen™ kinase inhibitor assay service was used (Invitrogen Ltd., Paisley, UK) to investigate the ability of the compounds of the invention to inhibit CDK2 in dose dependent manner using ten inhibitor concentrations from 10 micromolar down to […] in half-logarithmic steps. The inhibitor concentration was plotted against the percent inhibition or displacement to determine the IC50 using XLFit 5.5 (IDBS, Guildford) to fit to a sigmoidal dose response curve with a variable slope.

CDK2/cyclin A = target: T3, CDK2/cyclin A (Homo sapiens, UniProt P24941); experiment: CDK2/cyclin A Z'-LYTE (SelectScreen); format: biochemical; details: duplicate, averaged
T3 construct: purchased Invitrogen Ltd., Paisley, UK (SelectScreen service)
Experimental: as §1

CDK2/cyclin E1 = target: T4, CDK2/cyclin E1 (Homo sapiens, UniProt P24941); experiment: CDK2/cyclin E1 LanthaScreen (SelectScreen); format: binding; details: duplicate, averaged
T4 construct: purchased Invitrogen Ltd., Paisley, UK (SelectScreen service)
Experimental: as §1

CDK2/cyclin A1 [2] = target: T2, CDK2/cyclin A1; experiment: CDK2/cyclin A1 LanthaScreen (SelectScreen), second list; format: binding; details: second list under the same heading; duplicate, averaged
Experimental: as §1

T1 sequence (P50750 whole entry): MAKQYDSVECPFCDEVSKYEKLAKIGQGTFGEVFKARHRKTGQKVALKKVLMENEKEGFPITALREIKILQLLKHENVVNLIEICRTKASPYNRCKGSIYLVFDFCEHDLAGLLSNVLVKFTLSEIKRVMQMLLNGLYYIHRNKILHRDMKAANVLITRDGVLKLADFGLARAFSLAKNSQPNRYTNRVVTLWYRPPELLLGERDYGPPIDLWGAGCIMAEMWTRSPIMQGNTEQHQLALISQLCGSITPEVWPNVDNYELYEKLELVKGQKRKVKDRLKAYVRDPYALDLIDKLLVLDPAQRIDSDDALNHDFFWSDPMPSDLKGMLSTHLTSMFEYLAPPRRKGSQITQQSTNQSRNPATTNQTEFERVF
T1 sequence (O60563 whole entry partner): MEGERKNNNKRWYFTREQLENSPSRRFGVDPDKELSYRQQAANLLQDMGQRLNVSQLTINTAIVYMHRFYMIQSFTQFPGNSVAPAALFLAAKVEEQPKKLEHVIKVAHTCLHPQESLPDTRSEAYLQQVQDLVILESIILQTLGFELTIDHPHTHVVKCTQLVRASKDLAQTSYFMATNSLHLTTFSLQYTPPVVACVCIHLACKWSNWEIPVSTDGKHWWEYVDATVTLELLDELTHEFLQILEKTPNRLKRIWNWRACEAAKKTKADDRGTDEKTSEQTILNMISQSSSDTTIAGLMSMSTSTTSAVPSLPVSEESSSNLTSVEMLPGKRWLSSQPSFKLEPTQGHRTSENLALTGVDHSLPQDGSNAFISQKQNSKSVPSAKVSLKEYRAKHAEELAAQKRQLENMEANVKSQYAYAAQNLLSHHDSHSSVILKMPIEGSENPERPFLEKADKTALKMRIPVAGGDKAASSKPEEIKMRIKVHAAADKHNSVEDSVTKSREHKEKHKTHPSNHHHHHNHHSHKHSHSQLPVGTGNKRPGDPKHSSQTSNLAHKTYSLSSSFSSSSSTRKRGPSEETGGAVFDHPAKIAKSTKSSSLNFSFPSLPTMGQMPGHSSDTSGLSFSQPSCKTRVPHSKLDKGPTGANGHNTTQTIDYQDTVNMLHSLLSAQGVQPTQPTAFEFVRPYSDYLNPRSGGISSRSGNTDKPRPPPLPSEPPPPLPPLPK

Row | IC50 (CDK9/CyclinT1) [nM] | IC50 (CDK2/cyclin A1 [1]) [nM] | IC50 (CDK2/cyclin A) [nM] | IC50 (CDK2/cyclin E1) [nM] | IC50 (CDK2/cyclin A1 [2]) [nM] | SMILES
1 | < 20 | < 200 | < 200 | < 200 | < 20 | N[C@H]1CC[C@H](Nc2nc(-c3c(F)cccc3F)nc3c(Cl)cnn23)CC1 [Example #108, (1r,4r)-N1-(8-chloro-2-(2,6-difluorophenyl)pyrazolo[1,5-a][1,3,5]triazin-4-yl)cyclohexane-1,4-diamine]
2 | < 200 | < 1000 | < 1000 | < 200 | < 200 | COCCNC1CCC(Nc2nc(-c3c(F)cccc3F)nc3c(Cl)cnn23)CC1 (centres unmarked) [Example #124, (1r,4r)-N1-(8-chloro-2-(2,6-difluorophenyl)pyrazolo[1,5-a][1,3,5]triazin-4-yl)-N4-(2-methoxyethyl)cyclohexane-1,4-diamine]
3 | < 20 | < 200 | < 1000 | < 200 | < 200 | FCCCN[C@H]1CC[C@H](Nc2nc(-c3c(F)cccc3F)nc3c(Cl)cnn23)CC1 [Example #128, (1r,4r)-N1-(8-chloro-2-(2,6-difluorophenyl)pyrazolo[1,5-a][1,3,5]triazin-4-yl)-N4-(3-fluoropropyl)cyclohexane-1,4-diamine]
4 | < 20 | < 1000 | < 1000 | < 200 | < 200 | Fc1cccc(F)c1-c1nc(N[C@H]2CC[C@H](N3CCOCC3)CC2)n2ncc(Cl)c2n1 [Example #89, 8-chloro-2-(2,6-difluorophenyl)-N-((1r,4r)-4-morpholinocyclohexyl)pyrazolo[1,5-a][1,3,5]triazin-4-amine]
